# Experimental data from the supplement of paper PMC6965134.
# Experiment: TIMS collisional cross section (CCS, N2) of the lipid ion; higher = larger ion cross section
# Details: sample type: HeLa; ionization mode: positive; one isomer drawn
row,TIMS collisional cross section [Å²],SMILES
1,338.9,CCCCC/C=C\C/C=C\C/C=C\C/C=C\CCCCCC(=O)OC[C@@H](COC(=O)CCCCCCC/C=C\CCCCCCCC)OC(=O)CCCCCCCCC/C=C\CCCCCCCC [TG 18:1_20:1_22:4] (ion (formula + adduct): [C63H110O6+NH4] 1+)
2,336.5,CC/C=C\C/C=C\C/C=C\C/C=C\C/C=C\C/C=C\CCC(=O)OC[C@@H](COC(=O)CCCCCCC/C=C\CCCCCCCC)OC(=O)CCCCCCCCC/C=C\CCCCCCCC [TG 18:1_20:1_22:6] (ion (formula + adduct): [C63H106O6+NH4] 1+)
3,333.4,CC/C=C\C/C=C\C/C=C\C/C=C\C/C=C\CCCCCC(=O)OC[C@@H](COC(=O)CCCCCCC/C=C\CCCCCCCC)OC(=O)CCC/C=C\C/C=C\C/C=C\C/C=C\CCCCC [TG 18:1_20:4_22:5] (ion (formula + adduct): [C63H102O6+NH4] 1+)
4,349.2,CCCCCCCC/C=C\CCCCCCCCCCCC(=O)OC[C@@H](COC(=O)CCCCCCC/C=C\CCCCCCCC)OC(=O)CCCCCCCCCCC/C=C\CCCCCCCC [TG 18:1_22:1_22:1] (ion (formula + adduct): [C65H120O6+NH4] 1+)

# Same assay, conditions: sample type: Liver; ionization mode: positive; one isomer drawn
row,TIMS collisional cross section [Å²],SMILES
1,337.9,CC/C=C\C/C=C\C/C=C\C/C=C\C/C=C\CCCCCC(=O)OC[C@@H](COC(=O)CCCCCCC/C=C\CCCCCCCC)OC(=O)CCCCCCCCC/C=C\CCCCCCCC [TG 18:1_20:1_22:5] (ion (formula + adduct): [C63H108O6+NH4] 1+)
2,339.9,CCCCC/C=C\C/C=C\C/C=C\C/C=C\CCCC(=O)O[C@H](COC(=O)CCCCCCC/C=C\CCCCCCCC)COC(=O)CCCCCCCCCCC/C=C\CCCCCCCC [TG 18:1_20:4_22:1] (ion (formula + adduct): [C63H110O6+NH4] 1+)
3,344.7,CC/C=C\C/C=C\C/C=C\C/C=C\C/C=C\C/C=C\CCC(=O)OC[C@@H](COC(=O)CCCCCCC/C=C\CCCCCCCC)OC(=O)CCCCCCCCCCCCCCCCCCCCC [TG 18:1_22:0_22:6] (ion (formula + adduct): [C65H112O6+NH4] 1+)
4,346.9,CCCCC/C=C\C/C=C\CCCCCCCCCCCC(=O)OC[C@@H](COC(=O)CCCCCCC/C=C\CCCCCCCC)OC(=O)CCCCCCCCCCC/C=C\CCCCCCCC [TG 18:1_22:1_22:2] (ion (formula + adduct): [C65H118O6+NH4] 1+)
5,342.5,CC/C=C\C/C=C\C/C=C\C/C=C\C/C=C\C/C=C\CCC(=O)OC[C@@H](COC(=O)CCCCCCC/C=C\CCCCCCCC)OC(=O)CCCCCCCCCCC/C=C\CCCCCCCC [TG 18:1_22:1_22:6] (ion (formula + adduct): [C65H110O6+NH4] 1+)
6,321.8,C(OC(=O)CCCCCCC/C=C\C/C=C\CCCCC)[C@]([H])(OC(CCCCCCC/C=C\C/C=C\CCCCC)=O)COC(CCCCCCC/C=C\C/C=C\CCCCC)=O [TG 18:2_18:2_18:2] (ion (formula + adduct): [C57H98O6+NH4] 1+)
7,325.1,CCCCC/C=C\C/C=C\CCCCCCCC(=O)OC[C@H](COC(=O)CCCCCCC/C=C\CCCCCCCCC)OC(=O)CCCCCCC/C=C\C/C=C\CCCCC [TG 18:2_18:2_19:1] (ion (formula + adduct): [C58H102O6+NH4] 1+)
8,323.3,CCCCC/C=C\C/C=C\C/C=C\C/C=C\CCCC(=O)OC[C@@H](COC(=O)CCCCCCC/C=C\C/C=C\CCCCC)OC(=O)CCCCCCC/C=C\C/C=C\CCCCC [TG 18:2_18:2_20:4] (ion (formula + adduct): [C59H98O6+NH4] 1+)
9,327.9,CC/C=C\C/C=C\C/C=C\C/C=C\C/C=C\CCCCCC(=O)OC[C@@H](COC(=O)CCCCCCC/C=C\C/C=C\CCCCC)OC(=O)CCCCCCC/C=C\C/C=C\CCCCC [TG 18:2_18:2_22:5] (ion (formula + adduct): [C61H100O6+NH4] 1+)
10,327.3,CC/C=C\C/C=C\C/C=C\C/C=C\C/C=C\C/C=C\CCC(=O)OC[C@@H](COC(=O)CCCCCCC/C=C\C/C=C\CCCCC)OC(=O)CCCCCCC/C=C\C/C=C\CCCCC [TG 18:2_18:2_22:6] (ion (formula + adduct): [C61H98O6+NH4] 1+)
11,314.3,CC/C=C\C/C=C\C/C=C\C/C=C\CCCCC(=O)OC[C@@H](COC(=O)CCCCCCC/C=C\C/C=C\CCCCC)OC(=O)CCCC/C=C\C/C=C\C/C=C\CCCCC [TG 18:2_18:3_18:4] (ion (formula + adduct): [C57H92O6+NH4] 1+)
12,321.6,CC/C=C\C/C=C\C/C=C\CCCCCCCC(=O)O[C@@H](COC(=O)CCC/C=C\C/C=C\C/C=C\C/C=C\CCCCC)COC(=O)CCCCCCC/C=C\C/C=C\CCCCC [TG 18:2_18:3_20:4] (ion (formula + adduct): [C59H96O6+NH4] 1+)
13,319.5,CC/C=C\C/C=C\C/C=C\C/C=C\C/C=C\CCCC(=O)OC[C@@H](COC(=O)CCCCCCC/C=C\C/C=C\CCCCC)OC(=O)CCCCCCC/C=C\C/C=C\C/C=C\CC [TG 18:2_18:3_20:5] (ion (formula + adduct): [C59H94O6+NH4] 1+)
14,324.9,CC/C=C\C/C=C\C/C=C\C/C=C\C/C=C\C/C=C\CCC(=O)OC[C@@H](COC(=O)CCCCCCC/C=C\C/C=C\CCCCC)OC(=O)CCCCCCC/C=C\C/C=C\C/C=C\CC [TG 18:2_18:3_22:6] (ion (formula + adduct): [C61H96O6+NH4] 1+)
15,332.8,CCCCC/C=C\C/C=C\CCCCCCCC(=O)OC[C@H](COC(=O)CCCCCCCCC/C=C\CCCCCCCC)OC(=O)CCCCCCC/C=C\CCCCCCCCC [TG 18:2_19:1_20:1] (ion (formula + adduct): [C60H108O6+NH4] 1+)
16,338.2,CCCCC/C=C\C/C=C\CCCCCCCC(=O)OC[C@H](COC(=O)CCCCCCCCC/C=C\CCCCCCCCCC)OC(=O)CCCCCCC/C=C\CCCCCCCCC [TG 18:2_19:1_22:1] (ion (formula + adduct): [C62H112O6+NH4] 1+)
17,341.4,CCCCC/C=C\C/C=C\CCCCCCCCCC(=O)O[C@H](COC(=O)CCCCCCC/C=C\C/C=C\CCCCC)COC(=O)CCCCCCCCCCCCCCCCCCCCC [TG 18:2_20:2_22:0] (ion (formula + adduct): [C63H114O6+NH4] 1+)

# Same assay, conditions: sample type: plasma; ionization mode: positive; one isomer drawn
row,TIMS collisional cross section [Å²],SMILES
1,332.5,CC/C=C\C/C=C\C/C=C\C/C=C\C/C=C\C/C=C\CCC(=O)OC[C@@H](COC(=O)CCCCCCC/C=C\CCCCCCCC)OC(=O)CCC/C=C\C/C=C\C/C=C\C/C=C\CCCCC [TG 18:1_20:4_22:6] (ion (formula + adduct): [C63H100O6+NH4] 1+)
2,317.6,CC/C=C\C/C=C\C/C=C\CCCCCCCC(=O)OC[C@@H](COC(=O)CCCCCCC/C=C\C/C=C\CCCCC)OC(=O)CCCCCCC/C=C\C/C=C\CCCCC [TG 18:2_18:2_18:3] (ion (formula + adduct): [C57H96O6+NH4] 1+)
3,327,CC/C=C\C/C=C\C/C=C\C/C=C\C/C=C\C/C=C\CCC(=O)OC[C@@H](COC(=O)CCCCCCC/C=C\C/C=C\CCCCC)OC(=O)CCCCCCC/C=C\C/C=C\CCCCC [TG 18:2_18:2_22:6] (ion (formula + adduct): [C61H98O6+NH4] 1+)
4,321.6,CC/C=C\C/C=C\C/C=C\CCCCCCCC(=O)O[C@@H](COC(=O)CCC/C=C\C/C=C\C/C=C\C/C=C\CCCCC)COC(=O)CCCCCCC/C=C\C/C=C\CCCCC [TG 18:2_18:3_20:4] (ion (formula + adduct): [C59H96O6+NH4] 1+)
5,340.8,CCCCC/C=C\C/C=C\CCCCCCCC(=O)OC[C@H](COC(=O)CCCCCCCCCCC/C=C\CCCCCCCC)OC(=O)CCCCCCCCC/C=C\CCCCCCCC [TG 18:2_20:1_22:1] (ion (formula + adduct): [C63H114O6+NH4] 1+)
